# Data: ChEMBL document CHEMBL4507278 (2021)
# Tests used:
# [1] = target: 5-hydroxytryptamine receptor 2C (Homo sapiens) (UniProt P28335); details: Compound concentration 10.0 uM
# [2] = target: Serine/threonine-protein kinase/endoribonuclease IRE1 (Homo sapiens) (UniProt O75460); details: Compound concentration 1000.0 nM
# [3] = system: Tyrosine-protein kinase ABL1 (Homo sapiens), P00519 [M351T]; details: Compound concentration 1000.0 nM
# [4] = target: Dual specificity mitogen-activated protein kinase kinase 4 (Homo sapiens) (UniProt P45985); details: Compound concentration 1000.0 nM
# Sequence of Dual specificity mitogen-activated protein kinase kinase 4 (Homo sapiens) (P45985 whole entry): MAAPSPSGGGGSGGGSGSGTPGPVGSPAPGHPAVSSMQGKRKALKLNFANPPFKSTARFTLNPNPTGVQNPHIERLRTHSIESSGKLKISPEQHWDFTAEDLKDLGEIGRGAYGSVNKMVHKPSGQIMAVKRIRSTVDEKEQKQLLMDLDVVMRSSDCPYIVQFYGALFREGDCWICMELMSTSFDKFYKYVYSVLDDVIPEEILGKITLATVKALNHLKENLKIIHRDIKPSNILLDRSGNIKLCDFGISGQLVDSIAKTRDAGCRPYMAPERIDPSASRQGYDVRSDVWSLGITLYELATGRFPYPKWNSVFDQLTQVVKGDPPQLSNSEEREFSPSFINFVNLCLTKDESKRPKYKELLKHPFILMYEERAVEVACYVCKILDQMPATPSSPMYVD
# [5] = target: T1, 5-hydroxytryptamine receptor 1A (Homo sapiens) (UniProt P08908); experiment: 5HT1A/HU Eurofins-Panlabs selectivity data (BI); details: Compound concentration 10.0 uM
# T1 sequence (whole entry): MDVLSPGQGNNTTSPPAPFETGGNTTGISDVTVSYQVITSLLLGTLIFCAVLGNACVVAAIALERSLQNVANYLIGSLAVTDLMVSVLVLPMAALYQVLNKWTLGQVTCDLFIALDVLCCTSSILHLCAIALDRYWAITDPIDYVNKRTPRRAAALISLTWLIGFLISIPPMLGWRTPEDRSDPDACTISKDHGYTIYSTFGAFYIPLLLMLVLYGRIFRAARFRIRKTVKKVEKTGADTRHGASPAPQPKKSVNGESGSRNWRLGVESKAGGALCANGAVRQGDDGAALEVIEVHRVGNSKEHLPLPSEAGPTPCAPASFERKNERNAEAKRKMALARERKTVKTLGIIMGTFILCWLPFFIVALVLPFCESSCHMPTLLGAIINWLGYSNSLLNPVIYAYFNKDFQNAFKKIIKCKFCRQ
# [6] = target: Muscarinic acetylcholine receptor M3 (Homo sapiens) (UniProt P20309); experiment: M3/HU Eurofins-Panlabs selectivity data (BI); details: Compound concentration 10.0 uM
# Sequence of Muscarinic acetylcholine receptor M3 (Homo sapiens) (P20309 whole entry, looked up): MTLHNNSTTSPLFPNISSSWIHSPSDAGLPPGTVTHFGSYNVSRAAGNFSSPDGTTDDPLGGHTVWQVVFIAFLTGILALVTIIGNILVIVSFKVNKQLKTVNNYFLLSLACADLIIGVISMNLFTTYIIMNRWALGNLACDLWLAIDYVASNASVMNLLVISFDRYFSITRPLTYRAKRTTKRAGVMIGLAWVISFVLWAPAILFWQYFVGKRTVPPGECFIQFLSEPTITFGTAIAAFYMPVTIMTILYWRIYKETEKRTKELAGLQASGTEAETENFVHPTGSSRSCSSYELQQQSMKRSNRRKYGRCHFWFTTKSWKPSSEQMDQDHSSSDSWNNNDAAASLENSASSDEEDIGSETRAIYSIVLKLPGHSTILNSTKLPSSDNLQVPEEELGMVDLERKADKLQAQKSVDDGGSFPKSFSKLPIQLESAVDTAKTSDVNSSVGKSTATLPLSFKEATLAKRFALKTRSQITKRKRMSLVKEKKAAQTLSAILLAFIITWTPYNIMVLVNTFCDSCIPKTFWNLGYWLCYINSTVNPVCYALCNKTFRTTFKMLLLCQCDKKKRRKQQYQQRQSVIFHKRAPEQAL
# [7] = target: B1 bradykinin receptor (Homo sapiens) (UniProt P46663); experiment: B1/H Eurofins-Panlabs selectivity data (BI); details: Compound concentration 10.0 uM
# [8] = target: Endothelin receptor type B (Homo sapiens) (UniProt P24530); experiment: ETB/HUM Eurofins-Panlabs selectivity data (BI); details: Compound concentration 10.0 uM
# [9] = target: Epidermal growth factor receptor (Homo sapiens) (UniProt P00533); experiment: EGF/HU Eurofins-Panlabs selectivity data (BI); details: Compound concentration 10.0 uM
# [10] = target: Histamine H2 receptor (Homo sapiens) (UniProt P25021); experiment: H2/H Eurofins-Panlabs selectivity data (BI); details: Compound concentration 10.0 uM
# Sequence of Histamine H2 receptor (Homo sapiens) (P25021 whole entry): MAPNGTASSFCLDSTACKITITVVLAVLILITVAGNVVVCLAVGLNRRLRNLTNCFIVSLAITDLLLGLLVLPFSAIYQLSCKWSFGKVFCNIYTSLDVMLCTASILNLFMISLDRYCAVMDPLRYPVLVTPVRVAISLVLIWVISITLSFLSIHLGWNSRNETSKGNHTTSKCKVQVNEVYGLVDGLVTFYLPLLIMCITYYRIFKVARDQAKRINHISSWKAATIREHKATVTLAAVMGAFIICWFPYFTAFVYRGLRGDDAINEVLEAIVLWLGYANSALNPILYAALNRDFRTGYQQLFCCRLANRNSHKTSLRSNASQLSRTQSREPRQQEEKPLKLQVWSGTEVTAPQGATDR
# [11] = target: Glucocorticoid receptor (Homo sapiens) (UniProt P04150); experiment: GLUCOCORTICO Eurofins-Panlabs selectivity data (BI); details: Compound concentration 10.0 uM
# [12] = target: D(1A) dopamine receptor (Homo sapiens) (UniProt P21728); experiment: D1/HU Eurofins-Panlabs selectivity data (BI); details: Compound concentration 10.0 uM
# [13] = target: Sodium-dependent serotonin transporter (Homo sapiens) (UniProt P31645); experiment: 5HTTRANS/HU Eurofins-Panlabs selectivity data (BI); details: Compound concentration 10.0 uM
# Sequence of Sodium-dependent serotonin transporter (Homo sapiens) (P31645 whole entry, looked up): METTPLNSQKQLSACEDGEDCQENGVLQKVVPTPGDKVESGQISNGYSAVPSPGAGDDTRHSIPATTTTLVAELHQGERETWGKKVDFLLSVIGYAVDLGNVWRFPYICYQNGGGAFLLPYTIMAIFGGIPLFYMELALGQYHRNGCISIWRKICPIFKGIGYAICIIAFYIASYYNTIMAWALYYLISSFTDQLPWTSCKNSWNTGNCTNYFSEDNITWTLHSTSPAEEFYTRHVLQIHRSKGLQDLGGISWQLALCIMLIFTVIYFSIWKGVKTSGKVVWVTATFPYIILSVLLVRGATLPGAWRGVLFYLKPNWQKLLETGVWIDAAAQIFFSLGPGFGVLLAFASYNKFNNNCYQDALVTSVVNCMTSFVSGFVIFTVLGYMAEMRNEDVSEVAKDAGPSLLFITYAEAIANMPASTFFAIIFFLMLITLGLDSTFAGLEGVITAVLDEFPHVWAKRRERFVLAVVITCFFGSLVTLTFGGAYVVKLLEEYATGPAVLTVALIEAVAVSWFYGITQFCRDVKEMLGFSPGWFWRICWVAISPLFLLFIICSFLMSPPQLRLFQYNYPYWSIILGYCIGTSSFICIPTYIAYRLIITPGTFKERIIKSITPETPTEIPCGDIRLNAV
# [14] = target: 5-hydroxytryptamine receptor 2B (Homo sapiens) (UniProt P41595); experiment: 5HT2B/HU Eurofins-Panlabs selectivity data (BI); details: Compound concentration 10.0 uM
# [15] = target: Adenosine receptor A3 (Homo sapiens) (UniProt P0DMS8); experiment: A3/H Eurofins-Panlabs selectivity data (BI); details: Compound concentration 10.0 uM
# [16] = target: D(3) dopamine receptor (Homo sapiens) (UniProt P35462); experiment: D3/HU Eurofins-Panlabs selectivity data (BI); details: Compound concentration 10.0 uM
# Sequence of D(3) dopamine receptor (Homo sapiens) (P35462 whole entry): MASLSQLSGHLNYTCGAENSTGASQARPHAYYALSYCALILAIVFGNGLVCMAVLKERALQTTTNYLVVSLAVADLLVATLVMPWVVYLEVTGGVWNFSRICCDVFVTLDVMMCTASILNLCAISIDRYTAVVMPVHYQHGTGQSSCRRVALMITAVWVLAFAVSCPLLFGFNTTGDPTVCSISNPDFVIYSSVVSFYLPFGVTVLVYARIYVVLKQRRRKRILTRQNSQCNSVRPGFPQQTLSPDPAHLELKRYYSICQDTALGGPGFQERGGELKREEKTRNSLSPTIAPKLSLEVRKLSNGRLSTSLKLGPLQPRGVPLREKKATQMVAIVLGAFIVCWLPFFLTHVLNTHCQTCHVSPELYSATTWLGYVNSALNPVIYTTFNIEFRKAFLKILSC
# [17] = target: Adenosine receptor A1 (Homo sapiens) (UniProt P30542); experiment: A1/HU Eurofins-Panlabs selectivity data (BI); details: Compound concentration 10.0 uM
# [18] = target: Histamine H3 receptor (Homo sapiens) (UniProt Q9Y5N1); experiment: H3/H Eurofins-Panlabs selectivity data (BI); details: Compound concentration 10.0 uM
# Sequence of Histamine H3 receptor (Homo sapiens) (Q9Y5N1 whole entry): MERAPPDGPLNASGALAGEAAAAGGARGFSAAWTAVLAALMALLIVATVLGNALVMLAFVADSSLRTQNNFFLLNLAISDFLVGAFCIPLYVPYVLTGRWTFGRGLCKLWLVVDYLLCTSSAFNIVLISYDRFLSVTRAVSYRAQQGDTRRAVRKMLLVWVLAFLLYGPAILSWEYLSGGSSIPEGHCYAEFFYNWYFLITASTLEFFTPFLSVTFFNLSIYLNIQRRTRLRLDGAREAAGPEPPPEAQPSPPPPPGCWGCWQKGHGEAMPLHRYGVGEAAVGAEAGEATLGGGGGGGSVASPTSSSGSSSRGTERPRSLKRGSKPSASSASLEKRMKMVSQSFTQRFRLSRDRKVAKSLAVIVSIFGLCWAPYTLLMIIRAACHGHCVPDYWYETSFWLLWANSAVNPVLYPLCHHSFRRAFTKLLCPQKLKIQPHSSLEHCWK
# [19] = target: Glutamate NMDA receptor (Rattus norvegicus) (UniProt P35439+Q00959+Q00960+Q00961+Q62645+Q8VHN2+Q9R1M7); experiment: NMDAAGSI/RA Eurofins-Panlabs selectivity data (BI); format: protein-complex assay; details: filed as agonist, Compound concentration 10.0 uM
# [20] = target: Endothelin-1 receptor (Homo sapiens) (UniProt P25101); experiment: ETA/HU Eurofins-Panlabs selectivity data (BI); details: Compound concentration 10.0 uM
# [21] = target: Interleukin-1 receptor type 1 (Mus musculus) (UniProt P13504); experiment: IL-1 Eurofins-Panlabs selectivity data (BI); details: Compound concentration 10.0 uM
# [22] = target: Muscarinic acetylcholine receptor M3 (Homo sapiens) (UniProt P20309); details: Compound concentration 10.0 uM
# hERG (KCNH2) = hERG (KCNH2) (Homo sapiens, UniProt Q12809); experiment: K+/HERG Eurofins-Panlabs selectivity data (BI); details: compound concentration 10 uM, read-out: % Ctrl
# Sequence of hERG (KCNH2) (Q12809 whole entry): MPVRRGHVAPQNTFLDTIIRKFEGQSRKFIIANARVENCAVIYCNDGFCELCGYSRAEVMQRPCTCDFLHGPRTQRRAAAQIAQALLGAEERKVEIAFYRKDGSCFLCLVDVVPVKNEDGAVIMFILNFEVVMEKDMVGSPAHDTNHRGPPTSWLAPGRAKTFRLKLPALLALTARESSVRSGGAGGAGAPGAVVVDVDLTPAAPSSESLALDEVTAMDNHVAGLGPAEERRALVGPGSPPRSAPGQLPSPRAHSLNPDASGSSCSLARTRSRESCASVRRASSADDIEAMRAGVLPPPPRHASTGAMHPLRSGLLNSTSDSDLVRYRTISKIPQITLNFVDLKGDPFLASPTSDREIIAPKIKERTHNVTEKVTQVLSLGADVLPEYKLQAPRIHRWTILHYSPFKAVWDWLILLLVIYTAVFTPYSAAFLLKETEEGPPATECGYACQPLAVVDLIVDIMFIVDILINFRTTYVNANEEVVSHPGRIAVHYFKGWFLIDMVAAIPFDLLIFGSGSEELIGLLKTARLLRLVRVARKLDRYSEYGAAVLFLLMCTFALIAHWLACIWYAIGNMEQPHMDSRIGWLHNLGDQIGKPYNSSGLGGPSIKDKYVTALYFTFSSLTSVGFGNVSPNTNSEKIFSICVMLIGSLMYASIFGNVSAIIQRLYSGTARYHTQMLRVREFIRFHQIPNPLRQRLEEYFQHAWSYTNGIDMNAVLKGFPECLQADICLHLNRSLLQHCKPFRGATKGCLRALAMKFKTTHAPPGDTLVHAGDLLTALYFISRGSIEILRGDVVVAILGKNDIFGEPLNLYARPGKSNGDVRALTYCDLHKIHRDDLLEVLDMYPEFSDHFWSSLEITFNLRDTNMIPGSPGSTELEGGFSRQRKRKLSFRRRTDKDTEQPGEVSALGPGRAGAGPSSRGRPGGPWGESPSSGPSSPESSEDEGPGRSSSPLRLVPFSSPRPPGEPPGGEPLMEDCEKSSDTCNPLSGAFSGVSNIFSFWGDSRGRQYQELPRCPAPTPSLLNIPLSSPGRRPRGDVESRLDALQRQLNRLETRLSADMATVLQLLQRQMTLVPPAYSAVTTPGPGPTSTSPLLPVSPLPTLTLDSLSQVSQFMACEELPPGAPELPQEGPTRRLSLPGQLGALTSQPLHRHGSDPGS
# [23] = target: Alpha-1B adrenergic receptor (Rattus norvegicus) (UniProt P15823); experiment: ALPHA1B/R Eurofins-Panlabs selectivity data (BI); details: Compound concentration 10.0 uM
# [24] = target: Cysteinyl leukotriene receptor 1 (Homo sapiens) (UniProt Q9Y271); experiment: CYSLT1_HS Eurofins-Panlabs selectivity data (BI); details: Compound concentration 10.0 uM
# [25] = target: Glutamate receptor ionotropic, kainate 1 (Rattus norvegicus) (UniProt P22756); experiment: KAINATE/R Eurofins-Panlabs selectivity data (BI); details: Compound concentration 10.0 uM
# [26] = target: Estrogen receptor (Homo sapiens) (UniProt P03372); experiment: ERALPHA/H Eurofins-Panlabs selectivity data (BI); details: Compound concentration 10.0 uM
# [27] = target: Mu-type opioid receptor (Homo sapiens) (UniProt P35372); experiment: MU/HU Eurofins-Panlabs selectivity data (BI); details: Compound concentration 10.0 uM
# Sequence of Mu-type opioid receptor (Homo sapiens) (P35372 whole entry): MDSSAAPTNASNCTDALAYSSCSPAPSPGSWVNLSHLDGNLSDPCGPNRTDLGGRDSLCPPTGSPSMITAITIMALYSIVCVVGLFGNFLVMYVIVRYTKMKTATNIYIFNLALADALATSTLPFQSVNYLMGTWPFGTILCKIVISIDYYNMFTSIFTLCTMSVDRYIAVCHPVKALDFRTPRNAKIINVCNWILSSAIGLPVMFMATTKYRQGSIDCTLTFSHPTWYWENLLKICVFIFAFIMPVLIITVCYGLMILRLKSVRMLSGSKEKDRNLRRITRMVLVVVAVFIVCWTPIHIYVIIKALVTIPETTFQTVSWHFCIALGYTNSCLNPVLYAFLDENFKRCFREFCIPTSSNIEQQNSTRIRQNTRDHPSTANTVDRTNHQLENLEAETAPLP
# [28] = target: Alpha-1A adrenergic receptor (Rattus norvegicus) (UniProt P43140); experiment: ALPHA1A/R Eurofins-Panlabs selectivity data (BI); details: Compound concentration 10.0 uM
# Sequence of Alpha-1A adrenergic receptor (Rattus norvegicus) (P43140 whole entry, looked up): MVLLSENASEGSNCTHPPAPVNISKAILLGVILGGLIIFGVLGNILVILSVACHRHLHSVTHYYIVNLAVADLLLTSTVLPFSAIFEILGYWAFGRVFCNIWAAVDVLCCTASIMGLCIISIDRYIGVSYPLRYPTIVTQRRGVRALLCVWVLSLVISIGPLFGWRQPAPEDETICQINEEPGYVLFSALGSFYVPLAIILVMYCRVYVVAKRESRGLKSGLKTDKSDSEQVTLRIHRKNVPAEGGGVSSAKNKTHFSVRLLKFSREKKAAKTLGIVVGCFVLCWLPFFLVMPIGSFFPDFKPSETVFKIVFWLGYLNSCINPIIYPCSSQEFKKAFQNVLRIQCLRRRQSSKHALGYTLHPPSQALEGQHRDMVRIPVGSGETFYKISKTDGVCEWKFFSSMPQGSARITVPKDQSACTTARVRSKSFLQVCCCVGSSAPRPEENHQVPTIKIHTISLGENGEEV
# [29] = target: Glutamate receptor ionotropic, NMDA 2A (Rattus norvegicus) (UniProt Q00959); experiment: NMDAPHSI/R Eurofins-Panlabs selectivity data (BI); details: Compound concentration 10.0 uM
# [30] = target: T2, Alpha-2A adrenergic receptor (Homo sapiens) (UniProt P08913); experiment: ALPHA2A/H Eurofins-Panlabs selectivity data (BI); details: Compound concentration 10.0 uM
# T2 sequence (whole entry): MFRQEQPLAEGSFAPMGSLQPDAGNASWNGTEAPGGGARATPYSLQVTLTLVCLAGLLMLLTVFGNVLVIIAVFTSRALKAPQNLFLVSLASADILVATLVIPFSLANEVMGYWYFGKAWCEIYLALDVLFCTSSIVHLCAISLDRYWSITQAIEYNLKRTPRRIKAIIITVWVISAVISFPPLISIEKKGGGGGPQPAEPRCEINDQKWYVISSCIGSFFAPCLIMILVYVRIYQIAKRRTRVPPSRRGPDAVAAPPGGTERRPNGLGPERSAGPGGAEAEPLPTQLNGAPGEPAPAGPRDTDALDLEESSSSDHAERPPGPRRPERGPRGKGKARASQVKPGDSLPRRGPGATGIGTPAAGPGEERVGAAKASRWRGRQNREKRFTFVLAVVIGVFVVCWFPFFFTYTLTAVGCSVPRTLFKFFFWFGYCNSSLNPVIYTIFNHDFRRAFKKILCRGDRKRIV
# [31] = target: Adenosine receptor A2a (Homo sapiens) (UniProt P29274); experiment: A2A/HU Eurofins-Panlabs selectivity data (BI); details: Compound concentration 10.0 uM
structure (smiles),measurement,setting,value
CS(=O)(=O)NCC[C@H](NC(=O)c1cncc2c1cnn2-c1ccc(F)cc1)c1ccnc(S(C)(=O)=O)c1 [BI 9307],inhibition,[1],-0.86%
same,residual activity,[2],100%
same,residual activity,[3],100%
same,residual activity,[4],100%
CS(=O)(=O)c1cc(C2(NC(=O)c3cncc4c3cnn4-c3ccc(F)cc3)CC2)ccn1 [BI 639667],residual activity,[5],89%
same,residual activity,[6],94%
same,residual activity,[7],99%
same,residual activity,[8],97%
same,residual activity,[9],55%
same,residual activity,[10],89%
same,residual activity,[11],96%
same,residual activity,[12],100%
same,residual activity,[13],100%
same,residual activity,[14],93%
same,residual activity,[15],81%
same,residual activity,[16],105%
same,residual activity,[17],82%
same,residual activity,[18],87%
same,residual activity,[19],86%
same,residual activity,[20],97%
same,residual activity,[21],90%
same,inhibition,[22],22%
same,activity at 10 µM,hERG (KCNH2),104% (not active)
same,residual activity,[23],93%
same,residual activity,[24],87%
same,residual activity,[25],91%
same,residual activity,[26],100%
same,residual activity,[27],86%
same,residual activity,[28],88%
same,residual activity,[29],93%
same,residual activity,[30],79%
same,residual activity,[31],31%
